# From patent US4927937A, “Pharmacologically active ε-valerolactams” (Chinese Academy of Medical Science, priority 1986, dated 1990)
# What was measured:
# [1] = test system: CCl4 intoxicated mice (SGPT); experiment: Hepatoprotective action: SGPT of CCl4 intoxicated mice; assay type: in vivo, mouse (male Kunming strain); details: 250 mg/kg × 2 orally at 8 h interval, 0.1% CCl4 10 ml/kg injected 24 h after second dose, 9 mice per group; P <0.01; control 1678 + 261
# Method: Male Kunming strain mice weighing 18-22 grams were used throughout the experiments. The compounds to be tested were suspended in 5% Tween 80 and given orally by gavage. The vehicle of 5% Tween 80 solution was administered to control mice via the same route. In in vitro experiments, the compounds were dissolved in dimethylformamide and added directly into the incubation mixture.
# Mice were divided into several groups. The control group was administered the vehicle. The other groups were given two doses (250 mg/kg) of the compound at an interval of 8 h, respectively. 10 ml/kg of 0.1% CCl4 in vegetable oil was injected in 24 h after the second administration of the compound. The mice were fasted for 16 h and sacrificed by decapitation. SGPT and liver lipids were determined. A piece of liver was processed into sections for pathological observation.
# [2] = test system: male rats, retrograde amnesia under hypoxia; experiment: Retrograde amnesia (rat) under hypoxic conditions; assay type: in vivo; details: 100 mg/kg p.o., hypoxia 3.8% oxygen, 15 animals per group
# Method: The apparatus (39 cm long, 21 cm high, and 21 cm wide) consists of two compartments, one made of translucent plastic (29 cm long) and the other one painted black (10 cm long) It has a bottom of spaced metal grids which are connected to a stimulating device delivered 1.6 mA for 20 s.
# Both compartments are connected via a door which can be closed.
# Male rats (100-120 g body weight) will be placed individually in the large compartment and allowed to explore both compartments for 3 min.
# Thereafter the animals are placed in the small (dark) compartment, the connecting door is closed and the foot shock is delivered. After that the animals are put in an air-tight cage which is prefused by a gas mixture containing 3.8% oxygen and 96.2% nitrogen.
# 24 hours later the rats are placed again in the bright compartment. The observation time is 3 min.
# One experiment is performed in three groups of 15 animals each:
# Group A: control group, not exposed to hypoxia
# Group B: control group, receiving hypoxia after first training
# Group C: treated animals, receiving hypoxia after first training.
# Evaluation: the times the animals need to enter the dark compartment are measured in seconds. […]
# The time difference between the control group B and the treated group C is calculated in percent (C-B=X%). X is considered to be measured for the potency of the antiamnestic effect of the substance tested.
# [3] = animal tests, literature report; cited from earlier work
Compound,SGPT units % X ± SE [1],"X (antiamnestic effect, C-B in percent of A-B) [2]",spasmolytic activity [3]
CN1C=C(c2ccccc2)C(c2ccccc2)C(O)C1=O (stereo not drawn) [Example 1],739 + 196 units %,11%,–
C=CC(C)(C)c1cc2cc3c(cc2oc1=O)OC1(C)CCC(C(C)(C)O)OC1C3 (stereo not drawn) [Clausmarin A],–,–,showed spasmolytic activity
